Details: 101.33 kPa, Liquid; for electrical conductivity: Alternating current cell with electrodes; for speed of sound: Sing-around technique in a fixed-path interferometer; for mass density: Vibrating tube method

CCCCn1cc[n+](C)c1.F[P-](F)(F)(F)(F)F [1-butyl-3-methylimidazolium hexafluorophosphate]
Details	electrical conductivity [S/m]	mass density [kg/m3]	speed of sound [m/s]
293.15 K	0.137	1371.61	1454.9
298.15 K	0.183	1367.65	1442.6
303.15 K	0.224	1363.13	1430.7
308.15 K	0.267	1359.04	1419
313.15 K	0.314	1354.93	1407.6
318.15 K	0.384	1350.83	1396.3
323.15 K	0.459	1346.72	1385.2

Reference: the NIST ThermoML archive (doi:10.1016/j.jct.2012.01.028)
